# Laboratory results: patent US20100324285A1, “ANTIINFLAMMATORY AGENT COMPRISING 2-AMINOPHENOL OR DERIVATIVE THEREOF AS ACTIVE INGREDIENT” (priority 2006, published 2010)
# Key:
# COX-2 = biological target: T1, COX-2 (Homo sapiens, UniProt P35354); test: COX Inhibitor Screening Assay Kit, COX-2; type: biochemical
# T1 sequence (P35354 18-604): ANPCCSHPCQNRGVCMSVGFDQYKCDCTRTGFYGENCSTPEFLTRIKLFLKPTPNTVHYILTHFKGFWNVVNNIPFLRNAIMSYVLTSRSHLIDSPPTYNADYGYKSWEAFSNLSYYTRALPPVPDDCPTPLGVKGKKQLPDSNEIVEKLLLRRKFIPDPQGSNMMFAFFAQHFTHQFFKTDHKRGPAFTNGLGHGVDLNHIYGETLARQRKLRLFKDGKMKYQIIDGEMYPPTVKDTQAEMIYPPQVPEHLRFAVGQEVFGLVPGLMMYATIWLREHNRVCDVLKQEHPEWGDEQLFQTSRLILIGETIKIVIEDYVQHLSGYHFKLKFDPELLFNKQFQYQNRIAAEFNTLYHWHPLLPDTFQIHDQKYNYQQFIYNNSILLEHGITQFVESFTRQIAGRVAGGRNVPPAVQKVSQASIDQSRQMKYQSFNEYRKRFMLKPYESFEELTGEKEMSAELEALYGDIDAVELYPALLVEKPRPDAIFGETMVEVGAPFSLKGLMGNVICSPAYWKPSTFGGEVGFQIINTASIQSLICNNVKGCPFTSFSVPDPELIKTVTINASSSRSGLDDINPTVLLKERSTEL
# Description: Fifty percent inhibitory concentration (IC50) means the concentration of test sample necessary for inhibiting PGE2 synthesis by 50% compared to non-inhibitory control sample. It can be also determined by measuring the amount of PGE2 produced by adding test samples to cells having cyclooxygenase activity. COX-1/COX-2 ratio means the ratio of […], and the higher the ratio is, the more specific to COX-2 the agent is.
# To verify the results of Experiment 2, it was investigated that whether the activity of COXs, essential enzymes for PGE2 synthesis system, can be inhibited. […] An experimental system without the test samples was set as control. The residual activity of COX-1 or COX-2 was determined as relative activity versus control.
# [1] = system: NHDF, normal fibroblast from human fetus; test: Collagen production by NHDF, Sircol Collagen Assay; type: cell-based; details: 6 days; for Collagen production (μg/well), AA-2G addition: 50 μM AA-2G; for Collagen production (μg/well), AA-2G free: no AA-2G
# Protocol: NDHF cells (commercialized by Kurabo Industries Ltd. Osaka, Japan, catalog No. “KF-4001”) were suspended in D-MEM supplemented with 10 (v/v) % FCS to give a concentration of 5×10^5 cells/ml, and the suspension was sown in 96-well microplate by 50 μl per well. […] After cultured at 37° C. for a day, the supernatant was removed and any one of the samples and D-MEM medium supplemented with 10 (v/v) % FCS containing 100 μM AA-2G (a final concentration of 50 μM) or D-MEM medium supplemented with 10 (v/v) % FCS not containing AA-2G were added by 100 μl per well, and cultured at 37° C. for 3 days in 5 (v/v) % CO2 atmosphere. […] After the culture supernatant was removed, 1 M acetate solution containing 1 mg/ml of pepsin (commercialized by SIGMA, Inc.) was added by 50 μl per well and the plate was shaken at room temperature for 4 hours with a plate mixer for pepsin digestion. The digest was collected in a 1.5 ml-tube by pipetting, admixed with 200 μl per tube of Dye Reagent of Sircol Collagen Assay Kit (commercialized by Biocolor Ltd.), and allowed to react at room temperature for 30 minutes by inversely mixing. The supernatant of the reaction mixture was completely removed bycentrifugation (4° C., 15,000 rpm, 10 minutes), […] dissolved in 50 μl of 1 N NaOH, the resulting supernatant was measured for its absorbance at 560 nm to 650 nm. […] According to the standard curve, the amount of collagen in the pepsin digest of the cells was calculated.
# [2] = system: NHDF, normal fibroblast from human fetus; test: Cytopathic test, alamar Blue; type: cell-based; details: 6 days; for Cell survival rate (%), AA-2G free: no AA-2G; for Cell survival rate (%), AA-2G addition: with AA-2G
# Protocol: Cells were cultured with test samples and D-MEM medium supplemented with 10 (v/v) % FCS with or without AA-2G for 6 days by the same method as above, and the supernatant was removed, washed with phosphate buffered saline (PBS(−)), and admixed with alamar Blue (commercialized by TREK Diagnostic Systems, Inc.), which had been diluted by 10-fold with D-MEM medium in a volume of 200 μl per well. After culturing at 37° C. for 90 minutes, the fluorescence intensity (exciting light: 544 nm, fluorescence: 590 nm) was measured. The cell survival rate (%) was calculated by dividing the fluorescence intensity of a well with a test sample by the fluorescence intensity of a well with a control sample, and multiplying by 100.
# [3] = read-out: residual activity of COX-2
smiles,measurement,setting,value
"Nc1cc2nc3ccccc3oc-2cc1=O [2-Aminophenoxazine-3-one, 2-aminophenoxazine-3-one]",IC50,"COX-2; PGE2 from arachidonic acid, read-out: IC50 COX-2",4.83 µM
same,COX-1/COX-2 ratio,COX-2; ratio of IC50 values of Table 2,about 1.3
same,remaining activity at 1.9 µM,COX-2; [3],95%
same,remaining activity at 3.8 µM,COX-2; [3],37%
same,remaining activity at 7.6 µM,COX-2; [3],29%
same,"Collagen production (μg/well), AA-2G addition",[1]; QA 0.125 μM,1.32 ± 0.45 μg/well
same,"Collagen production (μg/well), AA-2G free",[1]; QA 0.125 μM,0.66 ± 0.05 μg/well
same,"Collagen production (μg/well), AA-2G addition",[1]; QA 0.25 μM,1.64 ± 0.21 μg/well
same,"Collagen production (μg/well), AA-2G free",[1]; QA 0.25 μM,0.64 ± 0.06 μg/well
same,"Collagen production (μg/well), AA-2G addition",[1]; QA 0.5 μM,1.57 ± 0.18 μg/well
same,"Collagen production (μg/well), AA-2G free",[1]; QA 0.5 μM,0.63 ± 0.07 μg/well
same,"Collagen production (μg/well), AA-2G addition",[1]; QA 1.0 μM,1.03 ± 0.22 μg/well
same,"Collagen production (μg/well), AA-2G free",[1]; QA 1.0 μM,0.71 ± 0.10 μg/well
same,"Collagen production (μg/well), AA-2G addition",[1]; QA 2.0 μM,0.58 ± 0.06 μg/well
same,"Collagen production (μg/well), AA-2G free",[1]; QA 2.0 μM,0.70 ± 0.16 μg/well
same,"Cell survival rate (%), AA-2G free",[2]; QA 0.125 μM,101%
same,"Cell survival rate (%), AA-2G addition",[2]; QA 0.125 μM,100%
same,"Cell survival rate (%), AA-2G free",[2]; QA 0.25 μM,103%
same,"Cell survival rate (%), AA-2G addition",[2]; QA 0.25 μM,100%
same,"Cell survival rate (%), AA-2G free",[2]; QA 0.5 μM,99%
same,"Cell survival rate (%), AA-2G addition",[2]; QA 0.5 μM,92%
same,"Cell survival rate (%), AA-2G free",[2]; QA 1.0 μM,92%
same,"Cell survival rate (%), AA-2G addition",[2]; QA 1.0 μM,79%
same,"Cell survival rate (%), AA-2G free",[2]; QA 2.0 μM,88%
same,"Cell survival rate (%), AA-2G addition",[2]; QA 2.0 μM,73%
